Source: patent US20260374753A1, “NOVEL COMPOUND AND PREPARATION METHOD THEREFOR” (ASTRION INC., priority 2023, published 2026)

What was measured:
U87-MG cells = test: CCK assay of cell proliferation inhibition in human glioblastoma cells; format: cell-based; conditions: 0, 1, 2, and 4 μM, 48 hours, 450 nm
Description: Human glioblastoma cell line U87-MG cells were seeded at a density of 1×10^4 cells/well in a 96-well plate and cultured for 24 hours. Thereafter, the cells were treated with DMSO as a control and the compound AON-MG23-01 or AON-MG23-02 of the present invention, and then cultured for 48 hours. The compound of the present invention was treated at various concentrations of 0, 1, 2, and 4 μM. 10 μL of a CCK reagent was added and reacted for an hour, and the absorbance was then measured at 450 nm.

U87-MG [1] = test: Matrigel Transwell invasion (metastasis inhibition) in human glioblastoma; format: cell-based; conditions: 0, 1, 2, and 4 μM, 24 hours, compared to the untreated control
Description: A human glioblastoma cell line U87-MG was seeded at a density of 8×10^4 cells/well on Matrigel-coated filters (Transwell invasion chambers, Corning), and the cells were then treated with the compound (AON-MG23-01 or AON-MG23-02; each at 0, 1, 2, and 4 μM) of the present invention, and cultured at 37 °C in a CO2 incubator for 24 hours. After the culturing was completed, the cells were fixed and stained using the Diff-Quick Stain kit (Sysmex, Kobe, Japan). Images of the stained cells were taken under a microscope, the cells were counted using Image J software, and statistical analysis was then performed.

ANO1 [2] = test: Western blot comparison with EGFR inhibitor and ANO1 inhibitor: ANO1 expression; format: cell-based, human; conditions: U87-MG; 4 μM AON-MG23-02; 48 hours; vs untreated, 2 μM Osimertinib, 100 μM CaCCinh-A01, and their combination
Description: (§1) The inhibitory effects of the compound AON-MG23-02 of the present invention, the EGFR inhibitor Osimertinib, and the ANO1 inhibitor CaCCinh-A01 on the expression of ANO1, EGFR, and pEGFR proteins in a glioblastoma cell line were compared. A human glioblastoma cell line U87-MG was seeded at a density of 100×10^4 cells/dish in a 60 mm dish, and cultured for 24 hours. Thereafter, the cells were treated with 4 μM of AON-MG23-02, 2 μM of the EGFR inhibitor Osimertinib, 100 μM of the ANO1 inhibitor CaCCinh-A01, or a combination of 2 μM of Osimertinib and 100 μM of CaCCinh-A01, and cultured for 48 hours. The cultured cells were harvested and the harvested cells were lysed for Western blotting. An anti-ANO1 antibody (Abcam, ab53212), an anti-pEGFR antibody (Cell Signaling, #4407S), an anti-EGFR antibody (Cell Signaling, #4267S), and an anti-ACTIN antibody (sigma, #A2066) were used as antibodies for Western blotting. Protein concentration was quantified using the BSA method (a protein quantitation assay, a bovine serum albumin assay) (Pierce, Cat. 23225). […] The amount of each protein was quantified and analyzed using Image J software.

EGFR [3] = test: Western blot comparison with EGFR inhibitor and ANO1 inhibitor: EGFR expression; format: cell-based, human; conditions: U87-MG; 4 μM AON-MG23-02; 48 hours; vs untreated, 2 μM Osimertinib, 100 μM CaCCinh-A01, and their combination
Description: as §1

pEGFR = test: Western blot comparison with EGFR inhibitor and ANO1 inhibitor: pEGFR expression; format: cell-based, human; conditions: U87-MG; 4 μM AON-MG23-02; 48 hours; vs untreated, 2 μM Osimertinib, 100 μM CaCCinh-A01, and their combination
Description: as §1

U87-MG [4] = test: Matrigel invasion comparison with EGFR inhibitor and ANO1 inhibitor in human glioblastoma; format: cell-based; conditions: 4 μM AON-MG23-02, 16 hours, vs untreated, Osimertinib, 100 μM CaCCinh-A01
Description: A human glioblastoma cell line U87-MG was seeded at a density of 6×10^4 cells/well on the top of a Matrigel-coated filter (Transwell invasion chambers, Corning), treated with 4 μM of the compound AON-MG23-02 of the present invention, […] of the EGFR inhibitor Osimertinib, 100 μM of the ANO1 inhibitor CaCCinh-A01, or a combination of 4 μM of Osimertinib and 100 μM of CaCCinh-A01, and then cultured at 37 °C in a CO2 incubator for 16 hours. After the culturing was completed, the cells were fixed and stained using a Diff-Quick stain kit (Sysmex, Kobe, Japan). Images of the stained cells were taken under a microscope, the cells were counted using Image J software, and statistical analysis was then performed.

ANO1 [5] = test: Western blot: AON-MG23-02 derivatives, ANO1 protein expression in glioblastoma cell line; format: cell-based, human; conditions: U87-MG; 0, 8, 16, and 32 μM; 48 hours; compared to the untreated control
Description: (§2) The inhibitory effects of AON-MG23-02 derivatives AON-MG23-05, AON-MG23-06, AON-MG23-07, and AON-MG23-08 on ANO1 and EGFR protein expression in a glioblastoma cell line were compared. A human glioblastoma cell line U87-MG was seeded at a density of 100×10^4 cells/dish in a 60 mm dish, and cultured for 24 hours. Thereafter, the cells were treated with 0, 8, 16, and 32 μM of the AON-MG23-05, AON-MG23-06, AON-MG23-07, and AON-MG23-08 derivatives, respectively, and cultured for 48 hours. The cultured cells were harvested, and the harvested cells were lysed for Western blotting. An anti-ANO1 antibody (Abcam, ab53212), an anti-pEGFR antibody (Cell Signaling, #4407S), an anti-EGFR antibody (Cell Signaling, #4267S), and an anti-ACTIN antibody (sigma, #A2066) were used as antibodies for Western blotting. Protein concentration was quantified using the […] (a protein quantitation assay, a bovine serum albumin assay) (Pierce, Cat. 23225). […] The amount of each protein was quantified and analyzed using Image J software.

EGFR [6] = test: Western blot: AON-MG23-02 derivatives, EGFR protein expression in glioblastoma cell line; format: cell-based, human; conditions: U87-MG; 0, 8, 16, and 32 μM; 48 hours; compared to the untreated control
Description: as §2

U87-MG [7] = test: Matrigel invasion (metastasis inhibition) of AON-MG23-02 derivatives in human glioblastoma; format: cell-based; conditions: 0, 8, 16, and 32 μM, 24 hours, compared to the untreated control
Description: A human glioblastoma cell line U87-MG was seeded at a density of 8×10^4 cells/well on the top of a Matrigel-coated filter (Transwell invasion chambers, Corning), and then treated with 0, 8, 16, and 32 μM of each of the compound derivatives AON-MG23-05, AON-MG23-06, AON-MG23-07, and AON-MG23-08 of the present invention, and cultured at 37 °C in a CO2 incubator for 24 hours. After the culturing was completed, the cells were fixed and stained using a Diff-Quick stain kit (Sysmex, Kobe, Japan). Images of the stained cells were taken under a microscope, the cells were counted using Image J software, and statistical analysis was then performed.

Compound	inhibition of proliferation of U87-MG cells (U87-MG cells)	degree of penetration into Matrigel (U87-MG [1])	expression of ANO1 protein (derivatives) (ANO1 [5])	expression of EGFR protein (derivatives) (EGFR [6])	degree of penetration into Matrigel (derivatives) (U87-MG [7])	also measured
COc1cc(N2CCC(N3CCN(C)CC3)CC2)ccc1Nc1ncc(Cl)c(Nc2ccccc2N(C2CC2)S(C)(=O)=O)n1 [AON-MG23-01, N-(2-((5-chloro-2-((2-methoxy-4-(4-(4-methylpiperazin-1-yl)piperidin-1-yl)phenyl)amino)pyrimidin-4-yl)amino)phenyl)-N-cyclopropylmethanesulfonamide]	inhibits the proliferation of U87-MG cells	reduced degree of penetration into Matrigel compared to the untreated control	–	–	–	–
COc1cc(N2CCC(N(C)C)CC2)ccc1Nc1ncc(Cl)c(Nc2ccccc2N(C2CC2)S(C)(=O)=O)n1 [AON-MG23-02, N-(2-((5-chloro-2-((4-(4-(dimethylamino)piperidin-1-yl)-2-methoxyphenyl)amino)pyrimidin-4-yl)amino)phenyl)-N-cyclopropylmethanesulfonamide]	inhibits the proliferation of U87-MG cells	reduced degree of penetration into Matrigel compared to the untreated control	–	–	–	expression of ANO1 protein (comparison) (ANO1 [2]): reduces the expression of ANO1, EGFR, and pEGFR proteins compared to the untreated control, the EGFR inhibitor-treated group, the ANO1 inhibitor-treated group, and the EGFR inhibitor and ANO1 inhibitor combination-treated group; expression of EGFR protein (comparison) (EGFR [3]): reduces the expression of ANO1, EGFR, and pEGFR proteins compared to the untreated control, the EGFR inhibitor-treated group, the ANO1 inhibitor-treated group, and the EGFR inhibitor and ANO1 inhibitor combination-treated group; expression of pEGFR protein (comparison) (pEGFR): reduces the expression of ANO1, EGFR, and pEGFR proteins compared to the untreated control, the EGFR inhibitor-treated group, the ANO1 inhibitor-treated group, and the EGFR inhibitor and ANO1 inhibitor combination-treated group; degree of penetration into Matrigel (comparison with EGFR inhibitor and ANO1 inhibitor) (U87-MG [4]): reduced degree of penetration into Matrigel compared to the untreated control, the EGFR inhibitor-treated group, and the ANO1 inhibitor-treated group
O=C1c2ccccc2CN1Cc1ccc(CCN(CCO)Cc2ccc3ccccc3c2)cc1 [AON-MG23-05, 2-(4-(2-((2-hydroxyethyl)(naphthalen-2-ylmethyl)amino)ethyl)benzyl)isoindolin-1-one]	–	–	reduced expression of ANO1 and EGFR proteins compared to the untreated control	reduced expression of ANO1 and EGFR proteins compared to the untreated control	reduced degree of penetration into Matrigel compared to the untreated control	–
CCN(Cc1ccc2ccccc2c1)CC(O)c1ccc(CN2Cc3ccccc3C2=O)cc1 (stereo not shown) [AON-MG23-06, 2-(4-(2-(ethyl(naphthalen-2-ylmethyl)amino)-1-hydroxyethyl)benzyl)isoindolin-1-one]	–	–	–	–	reduced degree of penetration into Matrigel compared to the untreated control	–
O=C1c2ccccc2CN1Cc1ccc(CCP(=O)(Cc2ccc3ccccc3c2)Cc2ccc3ccccc3c2)cc1 [AON-MG23-07, 2-(4-(2-(bis(naphthalen-2-ylmethyl)phosphoryl)ethyl)benzyl)isoindolin-1-one]	–	–	–	–	reduced degree of penetration into Matrigel compared to the untreated control	–
NC(=O)N(CCc1ccc(CN2Cc3ccccc3C2=O)cc1)Cc1ccc2ccccc2c1 [AON-MG23-08, 1-(naphthalen-2-ylmethyl)-1-(4-((1-oxoisoindolin-2-yl)methyl)phenethyl)urea]	–	–	reduced expression of ANO1 and EGFR proteins compared to the untreated control	reduced expression of ANO1 and EGFR proteins compared to the untreated control	reduced degree of penetration into Matrigel compared to the untreated control	–
